Results reported in patent US20100137139A1, “HERBICIDE/SAFENER COMBINATION” (BAYER CROPSCIENCE AG, priority 2008, published 2010).
“And” between values parts separate entries of the source, which are not always exact repeats. Identical values can stand only once.

Legend:
Assay type in all cases: in vivo
Conditions in all cases: no safener
Wheat (Triso) [1] = assay: Pre-emergence herbicidal effect and safener effect on wheat, visual scoring in greenhouse
Source text: (§1) Seeds or rhizome pieces of mono- and dicotyledonous weed plants and crop plants are planted in peat pots in sandy loam and covered with earth. The herbicide/safener active ingredient combinations according to the invention, formulated as water-soluble powders or suspensions, and, in parallel experiments, the correspondingly formulated individual active ingredients were then applied to the surface of the covering earth at an application rate of 600 to 800 I of water/ha (converted) in a variety of dosages.
(§2) After the treatment, the pots were placed in the greenhouse and kept under good growth conditions for the weeds and the crop plants. Visual scoring of the plant damage or emergence damage was carried out after the test plants had emerged after a test period of 2 to 4 weeks, in comparison with untreated controls.

Wheat (Triso) [2] = assay: Post-emergence herbicidal effect and safener effect on wheat, visual scoring in greenhouse
Method: (§3) Seeds or rhizome pieces of mono- and dicotyledonous harmful plants and of crop plants are planted in peat pots in sandy loam, covered with earth and grown in a greenhouse under good growth conditions. Alternatively to this, harmful plants occurring in the paddy rice cultivation are cultivated in pots in which water comes to 2 cm above the soil surface. 10 to 20 days after sowing, the test plants are treated in the one-to three-leaf stage. The herbicide/safener active ingredient combinations according to the invention, formulated as water-soluble powders or suspensions, and, in parallel experiments, the correspondingly formulated individual active ingredients are sprayed onto the green plant parts in various dosages using an application rate of 300 I of water/ha (converted) and, after the test plants have remained in the greenhouse under optimum growth conditions for 2-3 weeks, the effect of the preparations is scored visually in comparison with untreated controls. In the case of rice or in the case of harmful plants which occur in the rice cultivation, the active ingredients are also placed directly into the irrigation water (application analogous to the so-called granules application) or sprayed onto plants and into the irrigation water.

Corn (Aventura) [3] = assay: Pre-emergence herbicidal effect and safener effect on corn, visual scoring in greenhouse
Source text: as §1, §2

Corn (Aventura) [4] = assay: Post-emergence herbicidal effect and safener effect on corn, visual scoring in greenhouse
Method: as §3

Rice (Ballila) = assay: Post-emergence herbicidal effect and safener effect on rice, visual scoring in greenhouse
Method: as §3

SMILES | % effect (without safener) (Wheat (Triso) [1]; herbicide 25 g a.i./ha) | % effect (without safener) (Corn (Aventura) [3]; herbicide 50 g a.i./ha) | % effect (without safener) (Wheat (Triso) [2]; herbicide 25 g a.i./ha) | % effect (without safener) (Corn (Aventura) [4]; herbicide 25 g a.i./ha) | other results
Nc1nc(C2CC2)nc(C(=O)O)c1Cl [Compound I-1, 6-amino-5-chloro-2-cyclopropyl-4-pyrimidinecarboxylic acid] | 30% | – | – | – | % effect (without safener) (Wheat (Triso) [2]; herbicide 50 g a.i./ha): 20%; % effect (without safener) (Corn (Aventura) [3]; herbicide 100 g a.i./ha): 50%
CCOC(=O)c1nc(C2CC2)nc(N)c1Cl [Compound I-3, ethyl 6-amino-5-chloro-2-cyclopropyl-4-pyrimidinecarboxylate] | – | 20% and 25% | – | – | % effect (without safener) (Corn (Aventura) [4]; herbicide 50 g a.i./ha): 60%; % effect (without safener) (Rice (Ballila); herbicide 25 g a.i./ha): 60%
Nc1nc(-c2ccc(Cl)cc2)nc(C(=O)O)c1Cl [Compound I-109, 6-amino-5-chloro-2-(4-chlorophenyl)-4-pyrimidinecarboxylic acid] | 20% | – | 30% | 60% | % effect (without safener) (Corn (Aventura) [3]; herbicide 25 g a.i./ha): 20%
Nc1nc(C2CC2)nc(C(=O)[O-])c1Cl.[K+] [Compound I-163, potassium salt of 6-amino-5-chloro-2-cyclopropyl-4-pyrimidinecarboxylic acid] | – | 50% | 10% | 20% | % effect (without safener) (Wheat (Triso) [1]; herbicide 50 g a.i./ha): 20%
Nc1nc(C2CC2)nc(C(=O)[O-])c1Cl.[Na+] [Compound I-164, 6-amino-5-chloro-2-cyclopropyl-4-pyrimidinecarboxylic acid sodium salt] | 10% | – | 20% | – | % effect (without safener) (Rice (Ballila); herbicide 25 g a.i./ha, sodium salt): 10% and 20%; % effect (without safener) (Rice (Ballila); herbicide 50 g a.i./ha): 20%
